Laboratory results from patent US20100056568A1, “Cycloalkylamine substituted isoquinolone and isoquinolinone derivatives” (sanofi-aventis, priority 2006, published 2010).
Counter-ions that a name gives are not always drawn.

molecular target: T1, human recombinant ROCK II (Homo sapiens, UniProt O75116); experiment: Determination of Rho kinase inhibition (Caliper peptide phosphorylation assay); assay type: biochemical; conditions: negative decadal logarithm of the IC50; ROCK II residues 11-552, fluorescein peptide substrate, 60 min at 32° C.; tested as salt or free base obtained in the examples
T1 construct: recombinant human ROCK-II residues 11-552; His6 (N); purchased Upstate Ltd., Dundee, UK
T1 sequence (O75116 11-552): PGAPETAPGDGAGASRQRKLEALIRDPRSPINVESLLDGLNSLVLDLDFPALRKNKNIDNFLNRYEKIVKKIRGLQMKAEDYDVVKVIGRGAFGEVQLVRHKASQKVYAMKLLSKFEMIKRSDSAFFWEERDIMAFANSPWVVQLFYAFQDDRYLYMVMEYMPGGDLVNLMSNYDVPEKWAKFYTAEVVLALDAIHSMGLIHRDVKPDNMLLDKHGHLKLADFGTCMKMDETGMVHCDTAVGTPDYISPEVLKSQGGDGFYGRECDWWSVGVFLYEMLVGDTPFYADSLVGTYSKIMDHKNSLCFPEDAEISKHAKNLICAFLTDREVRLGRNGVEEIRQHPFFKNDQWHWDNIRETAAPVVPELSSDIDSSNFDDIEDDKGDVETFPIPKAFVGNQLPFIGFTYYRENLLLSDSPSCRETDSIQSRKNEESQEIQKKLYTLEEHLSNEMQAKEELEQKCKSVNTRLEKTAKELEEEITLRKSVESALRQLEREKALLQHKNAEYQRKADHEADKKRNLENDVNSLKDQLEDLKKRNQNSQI
Experimental: To measure Rho-kinase inhibition, IC50 values were determined according to the following protocol:
Active human recombinant ROCK II (N-terminal His6-tagged recombinant human ROCK-II residues 11-552) was purchased from Upstate Ltd., Dundee, UK. The peptide substrate, Fluorescein-AKRRRLSSLRA-COOH, was obtained from JPT Peptide Technologies, Berlin, Germany. Adenosine-5′-triphosphate (ATP), bovine serum albumine (BSA), dimethylsulphoxide (DMSO), 4-(2-Hydroxyethyl)piperazine-1-ethanesulfonic acid (Hepes), Brij-35 and dithiothreitol (DTT) were purchased from Sigma-Aldrich, Munich, Germany. Tris(hydroxymethyl)-aminomethane (Tris), magnesium chloride, NaOH, 1M HCl and EDTA were obtained from Merck Biosciences, Darmstadt, Germany. “Complete” protease inhibitor was from Roche Diagnostics, Mannheim, Germany.
Test compounds were diluted to the appropriate concentrations in buffer 1 (25 mM Tris-HCl, pH 7.4, 5 mM MgCl2, 2 mM DTT, 0.02% (w/v) BSA and 3% DMSO). The ROCK II enzyme was diluted to a concentration of 100 ng/ml in buffer 2 (25 mM Tris-HCl, pH 7.4, 5 mM MgCl2, 2 mM DTT and 0.02% (w/v) BSA). The peptide substrate and ATP were diluted to concentrations of 3 μM and 120 μM, respectively, in the buffer 2. Two μl of the compound solution were mixed with 2 μl of the diluted enzyme in a 384-well small volume microtiter plate (Greiner, Bio-One, Frickenhausen, Germany), and the kinase reaction was initiated by addition of 2 μl of the solution containing peptide substrate and ATP. After 60 min incubation at 32° C., the reaction was stopped by addition of 20 μl of a solution containing 100 mM Hepes-NaOH, pH 7.4, 0.015% (v/v) Brij-35, 45 mM EDTA and 0.227% chip coating reagent 1 (Caliper Lifescience Inc, Hopkinton, Mass.). Phosphorylation of the substrate peptide was then detected on a Caliper 3000 instrument essentially as described by Pommereau et al (J. Biomol. Screening 9(5), 409-416, 2004). Separation conditions were as follows: Pressure −1.3 psi, upstream voltage −1562 V, downstream voltage −500 V, sample sip time 200 ms. Positive controls (buffer 1 instead of compound) and negative controls (buffer 1 instead of compound and buffer 2 instead of ROCK II) were run in parallel on each plate.
The following products/compounds were tested in said assay by using the respective form (salt or free base) obtained as in the examples described above and the following activities were measured.

O=c1[nH]ccc2cc(N[C@H]3CC[C@@H](N(C4CC4)C4CC4)CC3)ccc12 [Compound 54, 6-cis-(4-Dicyclo-propyl-amino-cyclohexyl-amino)-2H-isoquinolin-1-one] and O=c1[nH]ccc2cc(N[C@H]3CC[C@@H](NC4CC4)CC3)ccc12 [Compound 53, 6-cis-(4-Cyclopropyl-amino-cyclo-hexylamino)-2H-isoquinolin-1-one] cannot be ordered by IC50: at most 1 µM for the first, at most 1 µM for the second.

N[C@H]1CC[C@H](Nc2ccc3c(=O)[nH]ccc3c2)CC1 [Compound 36, 6-trans-(4-Amino-cyclohexyl-amino)-2H-isoquinolin-1-one] and NC1CCCC(Nc2ccc3c(=O)[nH]ccc3c2)C1 (centres unmarked) [Compound 41, 6-(3-Amino-cyclohexylamino)-2H-isoquinolin-1-one] cannot be ordered by IC50: at most 1 µM for the first, at most 1 µM for the second.

CCN(CC)[C@H]1CC[C@@H](Nc2ccc3c(=O)[nH]ccc3c2)CC1 [Compound 44, 6-cis-(4-Diethyl-amino-cyclohexyl-amino)-2H-iso-quinolin-1-one] and CCCN(CCC)[C@H]1CC[C@@H](Nc2ccc3c(=O)[nH]ccc3c2)CC1 [Compound 46, 6-cis-(4-Dipropyl-amino-cyclohexyl-amino)-2H-iso-quinolin-1-one] fall in the same range of IC50: 1 to 10 µM for the first, 1 to 10 µM for the second.

CC(C)N[C@H]1CC[C@@H](Nc2ccc3c(=O)[nH]ccc3c2)CC1 [Compound 49, 6-cis-(4-Isopropyl-amino-cyclohexyl-amino)-2H-iso-quinolin-1-one] and CCN[C@H]1CC[C@@H](Nc2ccc3c(=O)[nH]ccc3c2)CC1 [Compound 45, 6-cis-(4-ethylamino-cyclohexylamino)-2H-isoquinolin-1-one] cannot be ordered by IC50: 1 to 10 µM for the first, at most 1 µM for the second.

N[C@H]1CC[C@@H](Sc2cc3ccncc3cc2Cl)CC1 [Compound 61, cis-4-(7-Chloro-isoquinolin-6-ylsulfanyl)-cyclohexylamine] and N[C@H]1CC[C@@H](Sc2cc3ccncc3cc2Br)CC1 [Compound 62, cis-4-(7-Bromo-isoquinolin-6-ylsulfanyl)-cyclohexylamine hydrochloride] cannot be ordered by IC50: at most 1 µM for the first, at most 1 µM for the second.

O=c1[nH]ccc2cc(N[C@H]3CC[C@@H](NCc4cccc(Cl)c4)CC3)ccc12 [Compound 50, 6-cis-[4-(3-Chloro-benzylamino)-cyclohexyl-amino]-2H-isoquinolin-1-one] and O=c1[nH]ccc2cc(N[C@H]3CC[C@@H](NCc4ccc(Cl)cc4)CC3)ccc12 [Compound 51, 6-cis-[4-(4-Chloro-benzylamino)-cyclohexyl-amino]-2H-isoquinolin-1-one] fall in the same range of IC50: 1 to 10 µM for the first, 1 to 10 µM for the second.

N[C@H]1CC[C@@H](Sc2cc3cc[nH]c(=O)c3cc2Cl)CC1 [Compound 64, 6-cis-(4-Amino-cyclohexylsulfanyl)-7-chloro-2H-isoquinolin-1-one] and N[C@H]1CCCC[C@H]1Nc1ccc2c(=O)[nH]ccc2c1 (relative stereo) [Compound 40, 6-cis-(2-Amino-cyclohexyl-amino)-2H-isoquinolin-1-one] cannot be ordered by IC50: at most 1 µM for the first, at most 1 µM for the second.

O=c1[nH]ccc2cc(N[C@H]3CC[C@@H](NCC4CCNCC4)CC3)ccc12 [Compound 52, 6-cis-{4-[(Piperidin-4-ylmethyl)-amino]-cyclohexyl-amino}-2H-isoquinolin-1-one] and CCCN[C@H]1CC[C@@H](Nc2ccc3c(=O)[nH]ccc3c2)CC1 [Compound 47, 6-cis-(4-Propyl-amino-cyclohexyl-amino)-2H-iso-quinolin-1-one] cannot be ordered by IC50: at most 1 µM for the first, at most 1 µM for the second.

Molecule O=c1[nH]ccc2cc(N[C@H]3CC[C@@H](NCc4ccccc4)CC3)ccc12 [Compound 48, 6-cis-(4-Benzyl-amino-cyclohexyl-amino)-2H-iso-quinolin-1-one] has an IC50 of 1 to 10 µM.
